Test results taken from US11986471B2, “Compounds and methods of use” (Tango Therapeutics, Inc., priority 2018, dated 2024).
pIC50: −log10 of the molar value.

Columns and labels:
[1] = system: HAP1 MTAP-deleted; test: SDMA in-cell western assay, HAP1 MTAP-deleted cell line; assay type: cell-based; settings: for pIC50: Homo sapiens, HAP1 MTAP-deleted cell line; for MTAP Intact/Deleted Ratio: IC50 ratio HAP1 MTAP-intact / HAP1 MTAP-deleted
Method in brief: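 Symmetric dimethylarginine (SDMA) levels were measured by in-cell western in MTAP-null HAP1 cells, one half of an MTAP-isogenic pair whose partner line expresses endogenous MTAP. Compound potency is reported as IC50.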

[2] = target: T1, PRMT5 (Homo sapiens, UniProt O14744); test: PRMT5 IC50 assay in the presence of MTA as cofactor; assay type: biochemical; settings: for pIC50: PRMT5, MTA as cofactor
T1 construct: purchased Viva (custom protein)
Method in brief: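 Each compound is tested on PRMT5 in the presence of SAM, of MTA, and without any cofactor. Ki values are then back-calculated using fixed factors of 1.5 (SAM) and 13.5 (MTA), and the two Ki values are compared as a ratio.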

[3] = system: HAP1 MTAP-intact; test: SDMA in-cell western assay, HAP1 MTAP-intact cell line; assay type: cell-based; settings: Homo sapiens
Method in brief: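 Symmetric dimethylarginine (SDMA) levels were measured by in-cell western in an isogenic HAP1 pair, one expressing endogenous MTAP and one MTAP-null, and IC50 values were derived for each line. Compounds whose IC50 ratio between the lines is 3-fold or more are classed as MTAP-selective.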

[4] = target: T1, PRMT5; test: PRMT5 IC50 assay with no cofactor; assay type: biochemical
Method in brief: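 Potency against PRMT5 is compared across cofactor states, where IC50 equals Ki×1.5 with SAM present and Ki×13.5 with MTA present.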

[5] = target: T1, PRMT5; test: PRMT5 IC50 assay in the presence of SAM as cofactor; assay type: biochemical
Method in brief: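 MTA-dependent versus SAM-dependent inhibition of human PRMT5 was assessed by IC50; conversion factors of 13.5 and 1.5 gave the corresponding Ki.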

[6] = ratio between the Ki in the presence of SAM and the Ki in the presence of MTA
[7] = ratio between Ki in the presence of SAM and Ki in the presence of MTA

T1 sequence (O14744 whole entry): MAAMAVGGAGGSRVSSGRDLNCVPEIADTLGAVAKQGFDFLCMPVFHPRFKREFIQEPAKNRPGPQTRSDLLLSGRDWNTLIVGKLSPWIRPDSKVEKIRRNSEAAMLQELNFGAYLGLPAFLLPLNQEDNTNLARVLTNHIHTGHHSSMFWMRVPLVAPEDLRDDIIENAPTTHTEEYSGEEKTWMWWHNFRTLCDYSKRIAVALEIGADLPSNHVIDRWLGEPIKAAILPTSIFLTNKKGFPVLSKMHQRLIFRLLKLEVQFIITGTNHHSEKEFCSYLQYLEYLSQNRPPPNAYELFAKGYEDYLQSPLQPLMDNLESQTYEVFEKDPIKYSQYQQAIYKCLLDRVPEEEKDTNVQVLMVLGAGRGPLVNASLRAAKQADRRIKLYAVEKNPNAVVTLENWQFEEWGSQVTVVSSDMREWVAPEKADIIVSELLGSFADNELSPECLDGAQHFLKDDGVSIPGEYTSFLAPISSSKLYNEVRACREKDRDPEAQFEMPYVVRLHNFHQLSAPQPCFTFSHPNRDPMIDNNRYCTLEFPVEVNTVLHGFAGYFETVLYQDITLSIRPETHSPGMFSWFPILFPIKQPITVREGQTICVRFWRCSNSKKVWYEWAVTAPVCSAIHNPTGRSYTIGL
T1 sequence (Q9BQA1 whole entry partner): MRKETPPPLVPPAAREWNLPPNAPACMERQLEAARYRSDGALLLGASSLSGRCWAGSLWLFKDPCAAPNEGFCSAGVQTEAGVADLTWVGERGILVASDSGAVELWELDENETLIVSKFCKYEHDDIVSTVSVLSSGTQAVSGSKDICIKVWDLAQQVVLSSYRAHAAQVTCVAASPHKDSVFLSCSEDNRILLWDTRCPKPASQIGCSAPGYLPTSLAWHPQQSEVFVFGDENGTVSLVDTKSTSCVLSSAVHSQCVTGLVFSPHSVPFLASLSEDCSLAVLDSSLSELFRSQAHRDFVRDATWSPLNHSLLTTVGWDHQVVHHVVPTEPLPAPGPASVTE

SMILES	pIC50 [1]	MTAP Intact/Deleted Ratio [1]	pIC50 [2]	SAM/MTA Ratio [2, 6]	pIC50 [3]	pIC50 [4]	pIC50 [5]	SAM/MTA Ratio [2, 7]	pIC50 ([4]; read-out: No Co-factor IC50)
O=C(NC[C@H](O)CN1CCc2cc(OCc3cnco3)ccc2C1)c1ccnc(NC2CCN(C(=O)C3CC3)CC2)c1 [Compound 450, 2-[[1-(cyclopropanecarbonyl)-4-piperidyl]amino]-N-[(2S)-2-hydroxy-3-[6-(oxazol-5-ylmethoxy)-3,4-dihydro-1H-isoquinolin-2-yl]propyl]pyridine-4-carboxamide]	> 6.00	A* (an IC50 ratio greater than or equal to 10 fold between the IC50 in the HAP1 MTAP-intact cell line and the HAP1 MTAP-deleted cell line)	6.30 to 7.30	A (a Ki ratio greater than or equal to 10 fold between the Ki in the presence of SAM and the Ki in the presence of MTA)	≤ 5.00	5.30 to 6.30	6.30 to 7.30	–	–
COc1cc(C(=O)NC[C@H](O)CN2CCc3c(ccc(OCc4cnco4)c3Cl)C2)cc(NC2CCC2)n1 [Compound 302, (S)—N-(3-(5-chloro-6-(oxazol-5-ylmethoxy)-3N-dihydroisoquinolin-2(1H)-yl)-2-hydroxypropyl)-2-(cyclobutylamino)-6-methoxyisonicotinamide]	≤ 5.00	C* (an IC50 ratio of less than 3 fold between the IC50 in the HAP1 MTAP-intact cell line and the HAP1 MTAP-deleted cell line)	6.30 to 7.30	–	≤ 5.00	–	5.30 to 6.30	A (a Ki ratio greater than or equal to 10 fold between the Ki in the presence of SAM and the Ki in the presence of MTA)	≤ 5.30
CC(=O)N1CCC(Nc2ccnc(C(=O)NC[C@H](O)CN3CCc4c(ccc(OCc5cnco5)c4C)C3)c2)CC1 [Compound 559]	5.00 to 6.00	C* (an IC50 ratio of less than 3 fold between the IC50 in the HAP1 MTAP-intact cell line and the HAP1 MTAP-deleted cell line)	6.30 to 7.30	A (a Ki ratio greater than or equal to 10 fold between the Ki in the presence of SAM and the Ki in the presence of MTA)	≤ 5.00	5.30 to 6.30	6.30 to 7.30	–	–
CC(=O)N1CCC(Nc2cc(C(=O)NC[C@H](O)CN3CCc4c(ccc(OCc5cnco5)c4Cl)C3)ccn2)CC1 [Compound 429]	5.00 to 6.00	B* (an IC50 ratio greater than or equal to 3 fold but lower than 10 fold between the IC50 in the HAP1 MTAP-intact cell line and the HAP1 MTAP-deleted cell line)	6.30 to 7.30	A (a Ki ratio greater than or equal to 10 fold between the Ki in the presence of SAM and the Ki in the presence of MTA)	≤ 5.00	5.30 to 6.30	6.30 to 7.30	–	–
CCC(=O)N1CCN(c2cc(C(=O)NC[C@H](O)CN3CCc4c(ccc(OCc5ocnc5C)c4C)C3)cc(NC3CCC3)n2)CC1 [Compound 417, 2-(cyclobutylamino)-N-[(2S)-2-hydroxy-3-{5-methyl-6-[(4-methyl-1,3-oxazol-5-yl)methoxy]-1,2,3,4-tetrahydroisoquinolin-2-yl}propyl]-6-(4-propanoylpiperazin-1-yl)pyridine-4-carboxamide]	> 6.00	A* (an IC50 ratio greater than or equal to 10 fold between the IC50 in the HAP1 MTAP-intact cell line and the HAP1 MTAP-deleted cell line)	6.30 to 7.30	–	≤ 5.00	–	6.30 to 7.30	A (a Ki ratio greater than or equal to 10 fold between the Ki in the presence of SAM and the Ki in the presence of MTA)	5.30 to 6.30
O=C(NC[C@H](O)CN1CCc2cc(OCc3cnco3)c(F)cc2C1)c1ccnc(NC2CCC2)c1 [Compound 513, 2-(cyclobutylamino)-N-[(2S)-3-[7-fluoro-6-(oxazol-5-ylmethoxy)-3,4-dihydro-1H-isoquinolin-2-yl]-2-hydroxy-propyl]pyridine-4-carboxamide]	5.00 to 6.00	B* (an IC50 ratio greater than or equal to 3 fold but lower than 10 fold between the IC50 in the HAP1 MTAP-intact cell line and the HAP1 MTAP-deleted cell line)	6.30 to 7.30	A (a Ki ratio greater than or equal to 10 fold between the Ki in the presence of SAM and the Ki in the presence of MTA)	≤ 5.00	≤ 5.30	5.30 to 6.30	–	–
